From ChEMBL document CHEMBL1147205 (Eur J Med Chem, 2007)
≈ marks a conversion by molar mass, not a printed value. Calls of active or inactive are those of the source. No cut-off for these calls is given here.

Experiments:
[1] = physchem; conditions: phosphate buffer, pH 5
Description: Solubility in phosphate buffer at pH 5.0

[2] = physchem; conditions: phosphate buffer, pH 7.5
Description: Lipophilicity in phosphate buffer at pH 7.5

[3] = artificial membrane
Description: Affinity to immobilized artificial membrane by reversed phase HPLC

[4] = physchem; conditions: phosphate buffer, pH 7.4
Description: Solubility in phosphate buffer at pH 7.4

[5] = tested on: Macrophage; assay: Inhibition of SP-A degradation in rabbit alveolar macrophages; assay type: functional, cell-based; conditions: Oryctolagus cuniculus
[6] = tested on: Macrophage; assay: Effect on rabbit alveolar macrophages assessed as reduction in viability at 50 uM by trypan blue exclusion; assay type: functional, cell-based; conditions: Oryctolagus cuniculus

Row | Structure (SMILES) | solubility [1] [µM] | logD [2] | logD IAM [3] | solubility [4] [µM] | Activity [5] | Activity [6]
1 | CCCCc1oc2ccccc2c1C(=O)c1cc(I)c(OCCN2CCOCC2)c(I)c1 | 170 (≈ 112 µg/mL) | 6.15 | 3.36 | 15 (≈ 9.89 µg/mL) | – | –
2 | CCCCc1oc2ccccc2c1C(=O)c1cc(I)c(OCCN(C(C)C)C(C)C)c(I)c1 | 230 (≈ 155 µg/mL) | 8.74 | 4.58 | 14 (≈ 9.43 µg/mL) | – | –
3 | CCCCc1oc2ccccc2c1C(=O)c1cc(I)c(OCCN2CCCC2)c(I)c1 | 1860 (≈ 1200 µg/mL) | 7.82 | 4.23 | 49 (≈ 31.5 µg/mL) | Active | Active
4 | CCCCc1oc2ccccc2c1C(=O)c1cc(I)c(OCCCN(C)C)c(I)c1 | 1040 (≈ 657 µg/mL) | 7.98 | 3.56 | 212 (≈ 134 µg/mL) | Active | Active
5 | CCCCc1oc2ccccc2c1C(=O)c1cc(I)c(OCCN2CCCCC2)c(I)c1 | 2220 (≈ 1460 µg/mL) | 8.04 | 4.28 | 23 (≈ 15.1 µg/mL) | Active | –
6 | CCCCc1oc2ccccc2c1C(=O)c1cc(I)c(OCCN(C)C)c(I)c1 | 2210 (≈ 1360 µg/mL) | 7.15 | 3.64 | 51 (≈ 31.5 µg/mL) | – | –
